ChEMBL document CHEMBL1201862, “PubChem BioAssay data set” (2004)
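Dose response: 5 concentrations. Exposure: 48 h. Format: 96-well plates. Endpoint: linear interpolation; highest concentration if not reached. Here, GI50 denotes the concentration required for 50% inhibition of growth.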 The source made the active and inactive calls. Cut-off read from the data, not from the text of the source: active = GI50 up to about 1.1 µM and inactive = higher.

Tests used:
Test in all cases: growth of human tumour cells (NCI), 48 h
[1] = tested on: HCC 2998
[2] = tested on: IGROV-1
[3] = tested on: NCI-H226
[4] = tested on: EKVX
[5] = tested on: OVCAR-3
[6] = tested on: SK-MEL-28
[7] = tested on: A549
[8] = tested on: RPMI-8226
[9] = tested on: OVCAR-8
[10] = tested on: KM12
[11] = tested on: LOX IMVI
[12] = tested on: SK-MEL-2
[13] = tested on: SNB-78
[14] = tested on: CAKI-1
[15] = tested on: 786-0
[16] = tested on: UACC-257
[17] = tested on: SN12C
[18] = tested on: BT-549
[19] = tested on: T47D

SMILES | GI50 [1] | GI50 [2] | GI50 [3] | GI50 [4] | GI50 [5] | GI50 [6] | GI50 [7] | GI50 [8] | GI50 [9] | GI50 [10] | GI50 [11] | GI50 [12] | GI50 [13] | GI50 [14] | GI50 [15] | GI50 [16] | GI50 [17] | GI50 [18] | GI50 [19]
COc1ccc(-c2oc3c(OC)c(OC)c(OC)c(O)c3c(=O)c2OC)cc1O | 2.11 µM (inactive) | 0.462 µM (active) | 0.0612 µM (active) | 0.836 µM (active) | 0.0632 µM (active) | < 0.01 µM (active) | 0.36 µM (active) | 0.121 µM (active) | 0.341 µM (active) | 0.556 µM (active) | 0.0935 µM (active) | 0.0546 µM (active) | 0.0735 µM (active) | 0.557 µM (active) | 0.446 µM (active) | 0.0583 µM (active) | 0.0641 µM (active) |  | 
COc1cc(/C=N/N=C(\N)NO)c(Cl)cc1O | 61.5 µM (inactive) | > 100 µM (inactive) | 81.5 µM (inactive) | 43.8 µM (inactive) |  | 38.5 µM (inactive) | 38 µM (inactive) | > 100 µM (inactive) | 49.5 µM (inactive) | 45.3 µM (inactive) | 32.7 µM (inactive) | 71.6 µM (inactive) | > 100 µM (inactive) | 78 µM (inactive) | 46.6 µM (inactive) | > 100 µM (inactive) | 58.2 µM (inactive) |  | 
CC1=C(/C=C/C2=CC(=C\C(=O)O)/CC(C3=C(C)CCCC3(C)C)C2)C(C)(C)CCC1 (stereo not drawn) |  | 13.2 µM (inactive) | 11.2 µM (inactive) | 11.3 µM (inactive) | 14 µM (inactive) | 16 µM (inactive) | 4.8 µM (inactive) | 5.36 µM (inactive) | 14.7 µM (inactive) | 11.9 µM (inactive) | 13.7 µM (inactive) | 11.3 µM (inactive) | 20.7 µM (inactive) | 15.9 µM (inactive) | 14.8 µM (inactive) | 15.6 µM (inactive) | 15.6 µM (inactive) |  | 
Oc1ccncc1-c1cnccc1O | > 100 µM (inactive) | > 100 µM (inactive) | > 100 µM (inactive) | > 100 µM (inactive) | > 100 µM (inactive) | > 100 µM (inactive) | > 100 µM (inactive) | > 100 µM (inactive) | > 100 µM (inactive) | > 100 µM (inactive) | > 100 µM (inactive) |  | > 100 µM (inactive) | > 100 µM (inactive) | > 100 µM (inactive) | > 100 µM (inactive) | > 100 µM (inactive) |  | 
CC(=O)O[C@]12CCCCC1C1(O)C(O)CCCCC12 (stereo partly drawn) |  |  | > 100 µM (inactive) | > 100 µM (inactive) |  | > 100 µM (inactive) | > 100 µM (inactive) | > 100 µM (inactive) | > 100 µM (inactive) | > 100 µM (inactive) | > 100 µM (inactive) | > 100 µM (inactive) | > 100 µM (inactive) |  | > 100 µM (inactive) | > 100 µM (inactive) | > 100 µM (inactive) |  | 
C=C(COC(C)=O)CC(OC(C)=O)c1ccccc1 (stereo not drawn) | > 100 µM (inactive) | > 100 µM (inactive) | > 100 µM (inactive) | > 100 µM (inactive) | > 100 µM (inactive) | > 100 µM (inactive) | > 100 µM (inactive) | > 100 µM (inactive) | > 100 µM (inactive) | > 100 µM (inactive) | > 100 µM (inactive) | > 100 µM (inactive) | > 100 µM (inactive) |  | > 100 µM (inactive) |  | > 100 µM (inactive) |  | 
[O-][S+]1CSSC1 | 23.2 µM (inactive) | 22 µM (inactive) | 26.3 µM (inactive) | 31.3 µM (inactive) | 17.9 µM (inactive) | 27.4 µM (inactive) | 33.9 µM (inactive) |  | 19.6 µM (inactive) | 13.9 µM (inactive) | 2.2 µM (inactive) | 15.6 µM (inactive) | 20.3 µM (inactive) | 28.1 µM (inactive) | 20.7 µM (inactive) | 14.8 µM (inactive) | 12 µM (inactive) |  | 
N#CC1=C(O)NC(O)=C(C#N)C1c1ccc(C2C(C#N)=C(O)NC(O)=C2C#N)cc1 | > 100 µM (inactive) | > 100 µM (inactive) | > 100 µM (inactive) | > 100 µM (inactive) | > 100 µM (inactive) | > 100 µM (inactive) | 58.9 µM (inactive) | > 100 µM (inactive) | > 100 µM (inactive) | > 100 µM (inactive) | 35.2 µM (inactive) | > 100 µM (inactive) | > 100 µM (inactive) | > 100 µM (inactive) | > 100 µM (inactive) | > 100 µM (inactive) | 46.5 µM (inactive) |  | 
Cc1ccc(S(=O)(=O)N(/N=C(\N)Oc2ccc(Cl)cc2)C(=N)Oc2ccc(Cl)cc2)cc1 | > 100 µM (inactive) | > 100 µM (inactive) | > 100 µM (inactive) | > 100 µM (inactive) | > 100 µM (inactive) | > 100 µM (inactive) | > 100 µM (inactive) |  | > 100 µM (inactive) | > 100 µM (inactive) | > 100 µM (inactive) | > 100 µM (inactive) | > 100 µM (inactive) | > 100 µM (inactive) | > 100 µM (inactive) | > 100 µM (inactive) | > 100 µM (inactive) |  | 
C#CCN(Cc1ccc2nc(-c3ccccc3)c(N)nc2c1)c1cc(OC)c(OC)c(OC)c1 | 57.4 µM (inactive) | 37.1 µM (inactive) | 16.7 µM (inactive) | 31.2 µM (inactive) | 15.4 µM (inactive) | 37.1 µM (inactive) | 23.2 µM (inactive) | 11.2 µM (inactive) | 30.4 µM (inactive) | > 10 µM (inactive) | 25.2 µM (inactive) | 23.1 µM (inactive) | 22.9 µM (inactive) |  | 44.7 µM (inactive) |  | 32.1 µM (inactive) |  | 
Cc1ccc(S(=O)(=O)c2ccc(C)cc2[N+](=O)[O-])c([N+](=O)[O-])c1 | > 100 µM (inactive) | > 100 µM (inactive) | > 100 µM (inactive) | > 100 µM (inactive) | > 100 µM (inactive) | > 100 µM (inactive) | > 100 µM (inactive) | > 100 µM (inactive) | > 100 µM (inactive) | > 100 µM (inactive) | > 100 µM (inactive) | > 100 µM (inactive) | > 100 µM (inactive) |  | > 100 µM (inactive) |  | > 100 µM (inactive) |  | 
O=C1CCC[C@]2(CCCC(=O)N2)C1 | > 100 µM (inactive) | > 100 µM (inactive) | > 100 µM (inactive) | > 100 µM (inactive) | > 100 µM (inactive) | > 100 µM (inactive) | > 100 µM (inactive) | > 100 µM (inactive) | > 100 µM (inactive) | > 100 µM (inactive) | > 100 µM (inactive) | > 100 µM (inactive) | > 94 µM (inactive) | > 100 µM (inactive) | > 100 µM (inactive) | > 100 µM (inactive) | > 100 µM (inactive) |  | 
O=C1NC(=S)NC(=O)C1=Cc1ccc([N+](=O)[O-])o1 | 60.7 µM (inactive) | 21.6 µM (inactive) | > 100 µM (inactive) | 21.1 µM (inactive) |  | 25 µM (inactive) | > 100 µM (inactive) | 20.3 µM (inactive) | 29.4 µM (inactive) | 46.6 µM (inactive) | 17.6 µM (inactive) | 46.9 µM (inactive) | 23.5 µM (inactive) | 19.5 µM (inactive) | 19.3 µM (inactive) | 44.2 µM (inactive) | 16.3 µM (inactive) |  | 
O=[N+]([O-])c1ccc(/C=C/c2csnn2)cc1 | > 100 µM (inactive) | > 100 µM (inactive) | > 100 µM (inactive) | > 100 µM (inactive) | > 100 µM (inactive) | > 100 µM (inactive) | > 100 µM (inactive) | > 100 µM (inactive) | > 100 µM (inactive) | > 100 µM (inactive) | > 100 µM (inactive) | > 100 µM (inactive) | > 100 µM (inactive) | > 100 µM (inactive) | > 100 µM (inactive) | > 100 µM (inactive) | > 100 µM (inactive) |  | 
COc1cc2c3cc1Oc1c(OC)c(OC)cc4c1[C@@H](Cc1ccc(O)c(c1)Oc1ccc(cc1)C[C@@H]3N(C)CC2)N(C)CC4.c1ccccc1 | 7.93 µM (inactive) | 20 µM (inactive) | 22.2 µM (inactive) | 13.9 µM (inactive) | 14.4 µM (inactive) | 15.3 µM (inactive) | 22.5 µM (inactive) | 16.3 µM (inactive) | 16.8 µM (inactive) | 10.9 µM (inactive) | 17.1 µM (inactive) | 16.9 µM (inactive) | 47.1 µM (inactive) | 1.79 µM (inactive) | 12.8 µM (inactive) | 3.36 µM (inactive) | 18.7 µM (inactive) |  | 
CC1=C(N2CC2)C(=O)c2nc3n(c2C1=O)CCC3O (stereo not drawn) | 0.151 µM (active) | 0.461 µM (active) | 0.697 µM (active) | 0.438 µM (active) | 0.275 µM (active) | 0.252 µM (active) | 0.215 µM (active) | 0.472 µM (active) | 0.201 µM (active) | 0.233 µM (active) | 0.619 µM (active) | 0.7 µM (active) | 0.0296 µM (active) | 0.275 µM (active) | 0.179 µM (active) | 0.226 µM (active) | 0.508 µM (active) | 0.0171 µM (active) | 0.395 µM (active)
